These compounds were tested on PBMC (T cell proliferation) (assay: T cell proliferation assay, PHA-stimulated human PBMC (BrdU ELISA)). Conditions: Homo sapiens, 48 h, read-out: D: IC50 (Tcell proliferation).
Type: cell-based
Procedure, shortened: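 BrdU ELISA readout of proliferation at 48 hours. Cells: human PBMC from healthy donors in 10% dialyzed FCS/RPMI1640, 1×10^5 per well, activated by 2 μg/ml phytohaemagglutinin in the presence of compound.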

In the case of `CCOC(=O)c1c(-c2c(F)cccc2Cl)noc1-c1cnn(-c2ccccc2N)c1C(F)(F)F` [Example B-98, ethyl 5-(1-(2-aminophenyl)-5-(trifluoromethyl)-1H-pyrazol-4-yl)-3-(2-chloro-6-fluorophenyl)isoxazole-4-carboxylate], the IC50 is reported as 10 to 100 nM.

Same assay, conditions: Homo sapiens, 48 h, read-out: IC50 (Tcell proliferation)

Compound `CC(=O)Nc1cccc(-n2ncc(-c3onc(-c4c(F)cccc4Cl)c3-c3nnc(C)s3)c2C(F)(F)F)c1` [IB-12, N-(3-(4-(3-(2-chloro-6-fluorophenyl)-4-(5-methyl-1,3,4-thiadiazol-2-yl)isoxazol-5-yl)-5-(trifluoromethyl)-1H-pyrazol-1-yl)phenyl)acetamide] has an IC50 of 1000 to 10000 nM.

Same assay, conditions: PHA-stimulated human PBMC, 48 hours, BrdU; column D; activity classes 1-4; read-out: IC50 (Tcell proliferation)

Compared with `Fc1cccc(Cl)c1-c1noc(-c2cnn(-c3ccncc3)c2C(F)(F)F)c1-c1ccoc1` [IB-24, 3-(2-chloro-6-fluorophenyl)-4-(furan-3-yl)-5-(1-(pyridin-4-yl)-5-(trifluoromethyl)-1H-pyrazol-4-yl)isoxazole], `Fc1cccc(-n2ncc(-c3onc(-c4c(F)cccc4Cl)c3-c3ccoc3)c2C(F)(F)F)c1` [Example I-13, 3-(2-chloro-6-fluorophenyl)-5-(1-(3-fluorophenyl)-5-(trifluoromethyl)-1H-pyrazol-4-yl)-4-(furan-3-yl)isoxazole] is higher in IC50: 10 to 100 nM for the first, 1000 to 10000 nM for the second.

`Fc1cccc(-n2ncc(-c3onc(-c4c(F)cccc4Cl)c3-c3ccsc3)c2C(F)(F)F)c1` [Example I-16, 3-(2-chloro-6-fluorophenyl)-5-(1-(3-fluorophenyl)-5-(trifluoromethyl)-1H-pyrazol-4-yl)-4-(thiophen-3-yl)isoxazole] and `Fc1cccc(Cl)c1-c1noc(-c2cnn(-c3cccc(Cl)c3)c2C(F)(F)F)c1-c1cnco1` [Example I-8, 3-(2-chloro-6-fluorophenyl)-5-(1-(3-chlorophenyl)-5-(trifluoromethyl)-1H-pyrazol-4-yl)-4-(oxazol-5-yl)isoxazole] cannot be ordered by IC50: < 10 nM for the first, < 10 nM for the second.

First: Fc1cccc(Cl)c1-c1noc(-c2cnn(-c3cccc(Cl)c3)c2C(F)(F)F)c1-c1nnco1 [IB-5, 2-(3-(2-chloro-6-fluorophenyl)-5-(1-(3-chlorophenyl)-5-(trifluoromethyl)-1H-pyrazol-4-yl)isoxazol-4-yl)-1,3,4-oxadiazole]
Second: Fc1ccccc1-n1ncc(-c2onc(-c3c(F)cccc3Cl)c2-c2nnco2)c1C(F)(F)F [Example I-15, 2-(3-(2-chloro-6-fluorophenyl)-5-(1-(2-fluorophenyl)-5-(trifluoromethyl)-1H-pyrazol-4-yl)isoxazol-4-yl)-1,3,4-oxadiazole]
The IC50 of the first is lower: < 10 nM for the first, 100 to 1000 nM for the second.

`Cc1nnc(-c2c(-c3c(F)cccc3Cl)noc2-c2cnn(-c3cccc(S(N)(=O)=O)c3)c2C(F)(F)F)s1` [IB-23, 3-(4-(3-(2-chloro-6-fluorophenyl)-4-(5-methyl-1,3,4-thiadiazol-2-yl)isoxazol-5-yl)-5-(trifluoromethyl)-1H-pyrazol-1-yl)benzenesulfonamide] showed an IC50 of 1000 to 10000 nM.

Same assay, conditions: human PBMC, 2 μg/ml PHA, 48 hours, BrdU; read-out: D: IC50 (Tcell proliferation)

First: COC(=O)c1c(-c2ccc(Cl)c(Cl)c2)noc1-c1cnn(-c2cccc(F)c2)c1C(F)(F)F [Example 97, methyl 3-(3,4-dichlorophenyl)-5-(1-(3-fluorophenyl)-5-(trifluoromethyl)-1H-pyrazol-4-yl)isoxazole-4-carboxylate]
Second: COC(=O)c1c(-c2c(F)cccc2Cl)noc1-c1cnn(-c2cccc(F)c2)c1C(F)(F)F [Example 5, methyl 3-(2-chloro-6-fluorophenyl)-5-(1-(3-fluorophenyl)-5-(trifluoromethyl)-1H-pyrazol-4-yl)isoxazole-4-carboxylate]
The IC50 of the first is higher: 1000 to 10000 nM for the first, < 10 nM for the second.

`CCOC(=O)c1c(-c2c(F)cccc2Cl)noc1-c1cnn(CC2CCCO2)c1C(F)(F)F` (stereo not shown) [Example B-96, ethyl 3-(2-chloro-6-fluorophenyl)-5-(1-((tetrahydrofuran-2-yl)methyl)-5-(trifluoromethyl)-1H-pyrazol-4-yl)isoxazole-4-carboxylate] and `CCOC(=O)c1c(-c2c(F)cccc2Cl)noc1-c1cnn(-c2ccccc2F)c1C(F)(F)F` [Example 42, Ethyl 3-(2-chloro-6-fluorophenyl)-5-[1-(2-fluorophenyl)-5-(trifluoromethyl)-1H-pyrazol-4-yl]isoxazole-4-carboxylate] fall in the same range of IC50: 10 to 100 nM for the first, 10 to 100 nM for the second.

First: CO/C(=N\c1c(-c2c(F)cccc2Cl)noc1-c1cnn(-c2cccc(F)c2)c1C(F)(F)F)C(F)(F)F [Example 136, (Z)-methyl N-(3-(2-chloro-6-fluorophenyl)-5-(1-(3-fluorophenyl)-5-(trifluoromethyl)-1H-pyrazol-4-yl)isoxazol-4-yl)-2,2,2-trifluoroacetimidate]
Second: O=C(Nc1c(-c2c(F)cccc2Cl)noc1-c1cnn(-c2cccc(F)c2)c1C(F)(F)F)C(F)(F)F [Example B-22, N-(3-(2-chloro-6-fluorophenyl)-5-[1-(3-fluorophenyl)-5-(trifluoromethyl)-1H-pyrazol-4-yl]-1,2-oxazol-4-yl)-2,2,2-trifluoroacetamide]
The IC50 of the first is lower: 100 to 1000 nM for the first, 1000 to 10000 nM for the second. The first is the more potent here.

First: COC(=O)c1c(-c2c(F)cccc2Cl)noc1-c1cnn(-c2ccccc2F)c1 [Example 89, Methyl 3-(2-chloro-6-fluorophenyl)-5-[1-(2-fluorophenyl)-1H-pyrazol-4-yl]isoxazole-4-carboxylate]
Second: COC(=O)c1c(-c2c(F)cccc2Cl)noc1-c1cnn(-c2ccccc2F)c1C(F)(F)F [Example 1, methyl 3-(2-chloro-6-fluorophenyl)-5-(1-(2-fluorophenyl)-5-(trifluoromethyl)-1H-pyrazol-4-yl)isoxazole-4-carboxylate]
The IC50 of the first is higher: 100 to 1000 nM for the first, 10 to 100 nM for the second. The second is the more potent here.

Compared with `CNC(=O)c1c(-c2c(F)cccc2Cl)noc1-c1cnn(-c2cccc(Cl)c2)c1C(F)(F)F` [Example 32, 3-(2-chloro-6-fluorophenyl)-5-(1-(3-chlorophenyl)-5-(trifluoromethyl)-1H-pyrazol-4-yl)-N-methylisoxazole-4-carboxamide], `NC(=S)c1c(-c2c(F)cccc2Cl)noc1-c1cnn(-c2cccc(Cl)c2)c1C(F)(F)F` [Example 125, 3-(2-chloro-6-fluorophenyl)-5-(1-(3-chlorophenyl)-5-(trifluoromethyl)-1H-pyrazol-4-yl)isoxazole-4-carbothioamide] is higher in IC50: 10 to 100 nM for the first, 1000 to 10000 nM for the second.

First: COC(=O)c1c(-c2c(F)cccc2Cl)noc1-c1cnn(-c2nccc(C(F)(F)F)n2)c1C(F)(F)F [Example 67, methyl 3-(2-chloro-6-fluorophenyl)-5-(5-(trifluoromethyl)-1-(4-(trifluoromethyl)pyrimidin-2-yl)-1H-pyrazol-4-yl)isoxazole-4-carboxylate]
Second: COC(=O)c1c(-c2c(F)cccc2Cl)noc1-c1cnn(-c2ccc(F)cc2)c1C(F)(F)F [Example 3, methyl 3-(2-chloro-6-fluorophenyl)-5-(1-(4-fluorophenyl)-5-(trifluoromethyl)-1H-pyrazol-4-yl)isoxazole-4-carboxylate]
The IC50 of the first is higher: 100 to 1000 nM for the first, 10 to 100 nM for the second.

First: CCOC(=O)c1c(-c2ccccc2F)noc1-c1cnn(-c2cccc(F)c2)c1C(F)(F)F [Example 90, ethyl 3-(2-fluorophenyl)-5-(1-(3-fluorophenyl)-5-(trifluoromethyl)-1H-pyrazol-4-yl)isoxazole-4-carboxylate]
Second: COC(=O)c1c(-c2ccccc2Cl)noc1-c1cnn(-c2cccc(F)c2)c1C(F)(F)F [Example 95, methyl 3-(2-chlorophenyl)-5-(1-(3-fluorophenyl)-5-(trifluoromethyl)-1H-pyrazol-4-yl)isoxazole-4-carboxylate]
The IC50 of the first is higher: 100 to 1000 nM for the first, < 10 nM for the second.

First: CCOC(=O)c1c(-c2ccc(Cl)cc2Cl)noc1-c1cnn(-c2cccc(Cl)c2)c1C(F)(F)F [Example B-46, ethyl 5-(1-(3-chlorophenyl)-5-(trifluoromethyl)-1H-pyrazol-4-yl)-3-(2,4-dichlorophenyl)-isoxazole-4-carboxylate]
Second: NC(=O)c1c(-c2c(F)cccc2Cl)noc1-c1cnn(-c2cccc(F)c2)c1C(F)(F)F [Example 124, 3-(2-chloro-6-fluorophenyl)-5-(1-(3-fluorophenyl)-5-(trifluoromethyl)-1H-pyrazol-4-yl)isoxazole-4-carboxamide]
The IC50 of the first is lower: 100 to 1000 nM for the first, 1000 to 10000 nM for the second.

Compared with `CON(C)C(=O)c1c(-c2c(F)cccc2Cl)noc1-c1cnn(-c2cccnc2)c1C(F)(F)F` [Example B-56, 3-(2-chloro-6-fluorophenyl)-N-methoxy-N-methyl-5-(1-(pyridin-3-yl)-5-(trifluoromethyl)-1H-pyrazol-4-yl)isoxazole-4-carboxamide], `CC(C)OC(=O)c1c(-c2c(F)cccc2Cl)noc1-c1cnn(-c2cccnc2)c1C(F)(F)F` [Example B-61, isopropyl 3-(2-chloro-6-fluorophenyl)-5-(1-(pyridin-3-yl)-5-(trifluoromethyl)-1H-pyrazol-4-yl)isoxazole-4-carboxylate] is lower in IC50: 1000 to 10000 nM for the first, 10 to 100 nM for the second.

`NC(=S)c1c(-c2c(F)cccc2Cl)noc1-c1cnn(-c2ccccc2Cl)c1C(F)(F)F` [Example B-101, 3-(2-chloro-6-fluorophenyl)-5-(1-(2-chlorophenyl)-5-(trifluoromethyl)-1H-pyrazol-4-yl)isoxazole-4-carbothioamide] and `O=C(c1c(-c2c(F)cccc2Cl)noc1-c1cnn(-c2ccccc2Cl)c1C(F)(F)F)N1CCCO1` [Example B-49, (3-(2-chloro-6-fluorophenyl)-5-(1-(2-chlorophenyl)-5-(trifluoromethyl)-1H-pyrazol-4-yl)isozazol-4-yl)(isoxazolidin-2-yl)methanone] fall in the same range of IC50: 1000 to 10000 nM for the first, 1000 to 10000 nM for the second.

First: COC(=O)c1c(-c2c(F)cccc2Cl)noc1-c1cnn(-c2cccc(F)c2)c1C(F)(F)C(F)F [Example 64, methyl 3-(2-chloro-6-fluorophenyl)-5-(1-(3-fluorophenyl)-5-(1,1,2,2-tetrafluoroethyl)-1H-pyrazol-4-yl)isoxazole-4-carboxylate]
Second: CCOC(=O)c1c(-c2onc(-c3c(F)cccc3Cl)c2C(=O)OC)cnn1-c1ccc(F)cc1F [Example 35, methyl 3-(2-chloro-6-fluorophenyl)-5-(1-(2,4-difluorophenyl)-5-(ethoxycarbonyl)-1H-pyrazol-4-yl)isoxazole-4-carboxylate]
The IC50 of the first is higher: 1000 to 10000 nM for the first, 100 to 1000 nM for the second.

From US8592456B2 (4SC Discovery GmbH, priority 2011, dated 2013)
